Patent US10154994B2, “Ophthalmic formulations of tyrosine kinase inhibitors, methods of use thereof, and preparation methods thereof” (Allgenesis Biotherapeutics Inc., priority 2015, dated 2018)
Structures can show the parent of a compound that is named as a salt. Where two headings read alike, the source gives them in different places.

Tested on: cornea suture-induced neovascularization
Conditions: for CNV Branching / CNV Length / CNV Area (~%): 6 eyes; for CNV Area (~%): percentage estimate of involved corneal circumference
Description: For this study, New Zealand white rabbits at approximately 5 months old with no visible signs of ocular defects were selected. Suture placement was performed on Day 1. Prior to surgery, the right eye of each animal was dilated using a mydriatic agent (1% tropicamide), and the conjunctiva was flushed with approximately 10 mL benzalkonium chloride (Zephiran™) diluted in sterile water, U.S.P. to 1:10,000 (v/v). Saline (0.9%) was also used to flush the eye along with benzalkonium chloride. Animals were anesthetized with isoflurane/oxygen during the procedure. Hydration of the eyes was maintained by irrigation with saline solution, as needed. The procedure was conducted under a dissecting or surgical microscope. The cornea of the right eye was exposed using an eyelid speculum. The central corneal area was appropriately marked as considered necessary by the surgeon. […] The outer point of suture placement was chosen near the limbus (1-2 mm), and the inner suture point was chosen near the corneal center, equidistant from the limbus, to obtain standardized angiogenic responses. The left eye remained untreated.
The study design is shown below in Table 7:
Dose formulations were administered by subconjunctival injection to the sutured right eye of each animal of the Avastin control group (5 mg) on Days 1 and 7, at a dose volume of 200 μL/dose immediately post suture placement. Dose formulations were given three times daily (TID) for the group administered with suspension vehicle, 0.3% Axitinib, 0.3% Nintedanib Ethanesulfonate, or 0.3% Sorafenib Tosylate for a duration of 14 days. […] The dosing volume was one 35 μL drop per dose. After the dose was administered, the upper and lower eyelids were gently held together to prevent the loss of material and to distribute the dose across the eye.
Ocular imaging and neovascularization assessments were performed once pre-treatment, and also once on Days 7 and 14. A pre-anesthetic cocktail of Ketamine (15 mg/kg) and Dexmedetomidine (0.25 mg/kg) was administered subcutaneously, and the animals were maintained with isoflurane/oxygen mix prior to and during the procedure. Still images of the cornea were taken from both eyes (from the center of each eye, nasally and temporally). Images were evaluated qualitatively and quantitatively to assess the degree of corneal neovascularization (CNV), and to determine the area affected by CNV. The length of the vessel incursion was measured from the limbus to the distal end of the encroaching CNV using a digital micrometer (in millimeters) for each selected image. Qualitative assessments included the percentage estimate of involved corneal circumference (using multiple images as necessary), and vessel branching.

[1] = topical TID for 14 days, study conclusion

| Compound | corneal neovascularization observed (Day 7 and Day 14) | CNV Branching (Day 7) | CNV Length (Day 7) | CNV Area (~%) (Day 7) | corneal neovascularization observed (Day 14) | CNV Branching (Day 14) | CNV Length (Day 14) | CNV Area (~%) (Day 14) | CNV Branching (Pre) | CNV Length (Pre) | CNV Area (~%) (Pre) | corneal neovascularization observed (Day 7) | tolerability in the CNV study (topical TID for 14 days) | efficacy in preventing or slowing CNV progression [1] | efficacy compared with Avastin (Day 7) | efficacy compared with Avastin (vessel length, surface area and vessel branching; words) (Day 15) | tolerability in the CNV study (rabbit, in vivo) | efficacy versus Avastin in preventing or slowing CNV progression (study conclusion) |
| --- | --- | --- | --- | --- | --- | --- | --- | --- | --- | --- | --- | --- | --- | --- | --- | --- | --- | --- |
| CNC(=O)c1cc(Oc2ccc(NC(=O)Nc3ccc(Cl)c(C(F)(F)F)c3)cc2)ccn1 [Sorafenib Tosylate] | Slight corneal neovascularization | – | – | – | – | – | – | – | – | – | – | – | – | – | – | – | – | – |
| Avastin: active control, 5 mg/eye by subconjunctival injection | – | 0 | 0 mm | 0% | minimal CNV | 1 | 0.45 mm | 13% | 0 | 0 mm | 0% | – | – | – | – | – | – | – |
| CNC(=O)c1ccccc1Sc1ccc2c(/C=C/c3ccccn3)n[nH]c2c1 [Axitinib] | – | very slight to moderate | approximately 0.5 mm | ~20% | – | – | – | – | – | – | – | not observed | well-tolerated | efficacious in preventing or slowing CNV progression | – | – | – | – |
| COC(=O)c1ccc2c(c1)NC(=O)/C2=C(\Nc1ccc(N(C)C(=O)CN2CCN(C)CC2)cc1)c1ccccc1 [Nintedanib Ethanesulfonate] | – | very slight to moderate | approximately 0.5 mm | ~20% | sparse | no branching | – | – | – | – | – | not observed | – | efficacious in preventing or slowing CNV progression | comparable to one given Avastin | slightly more efficacious | well-tolerated | more efficacious, or at least comparable to Avastin |
